Earlier results as cited in US20100135983A1, “Anti-inflammatory compositions and methods” (Searete LLC, a limited liability corporation of the State …, priority 2008, published 2010).

Tests used:
[1] = single agent, infused at 400 mg over one hour
lethal septic shock = settings: mice
Src family kinase = settings: also its dependent cellular responses
proteasome = settings: cultured breast cancer cells; disulfiram bound to copper
Epha1 = settings: at nanomolar concentrations
[2] = test system: Src family kinases (Src, Lck, Yes, Fyn); settings: at nanomolar concentrations

For `CCN(CC)CCCC(C)Nc1ccnc2cc(Cl)ccc12.O=P(O)(O)O.O=P(O)(O)O` (stereo not drawn) [chloroquine phosphate, 7-chloro-4-[[4-(diethylamino)-1-methylbutyl]amino]quinoline phosphate (1:2)], the “tolerability of intravenous infusion” value [1] is given as “without complication”.
In the case of `Cl.Cl.Nc1ccccc1Oc1ccc2c(N)nsc2c1` [Example M62812, 3-amino-6-(2-aminophenoxy)-1,2-benzisothiazole dihydrochloride], the “prevention of lethal septic shock” value (lethal septic shock) is listed as “prevents lethal septic shock”.
For `CCN(CC)CCCC(C)Nc1ccnc2cc(Cl)ccc12` (stereo not drawn) [Chloroquine], the “inhibition of CpG-induced Src family kinase activation” value (Src family kinase) is listed as “does not inhibit”.
For `CCN(CC)C(=S)SSC(=S)N(CC)CC` [disulfiram, 1-(diethylthiocarbamoyldisulfanyl)-N,N-diethyl-methanethioamide], the proteasomal activity (proteasome) is given as “inhibits proteasomal activity”.
For `Cc1nc(Nc2ncc(C(=O)Nc3c(C)cccc3Cl)s2)cc(N2CCN(CCO)CC2)n1.O` [dasatinib, N-(2-chloro-6-methylphenyl)-2-[[6-[4-(2-hydroxyethyl)-1-piperazinyl]-2-methyl-4-pyrimidinyl]amino]-5-thiazolecarboxamide, monohydrate], the “inhibition of Epha1” value (Epha1) is listed as “inhibits” and the “inhibition of Src family kinases (Src, Lck, Yes, Fyn)” value [2] is listed as “inhibits”.
